Experimental data published in patent US20240300932A1, “N-PHENYLIMINE DERIVATIVE AND PREPARATION METHOD AND USE THEREOF” (Guizhou University, priority 2023, published 2024).

Legend:
broad-leaf weeds = assay: Post-emergence herbicidal activity test, broad-leaf weeds as a group; type: in vivo; settings: 10 a.i.g/mu
Description: The weeds were cultivated in a 180 mm×140 mm plastic nutrient pot by a pot-culture method, placed in an enamel tray, and the plastic nutrient pots were filled with surface soil (⅘ of a depth) collected from a farmland and air-dried and sieved, and a soil humidity was controlled at 20% in the initial stage. Weed seeds with plump and uniform grains were selected, soaked in warm water at 25° C. for 6 h, and germinated in a biochemical incubator (dark) at 28° C. The freshly exposed weed seeds were evenly placed on the soil surface, and then covered with 0.5 cm to 1 cm of soil according to the size of the seeds. The weeds are cultivated in a controlled sunlight greenhouse at 20° C. to 30° C., under natural light, and a relative humidity of 57% to 72%. […]
2 weeks after sowing, the test plants were treated at the 2- to 3-leaf stage: the compounds of the present disclosure for testing were dissolved in acetone separately, and added with Tween 80, an emulsifiable oil of 1.5 liters/ha methyl oleate was added as a synergist, and an obtained mixture was diluted with certain water to a certain concentration solution. […] After spraying, the weeds were cultivated in the greenhouse for 3 weeks, and the experimental effects on the weeds were counted. […]

Abutilon theophrasti = assay: Post-emergence herbicidal activity test (stem and leaf spray, pot culture); type: in vivo; settings: 3 weeks after spraying
How it was run: (§1)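 Pot-grown weeds in loam (pH 7, 1.63% organic matter) were spray-treated on stems and leaves at the 2- to 3-leaf stage with compound in acetone/Tween 80 plus 1.5 liters/ha methyl oleate at 10, 5 or 2.5 g/mu. Fresh-weight growth control was scored 3 weeks later as grades 0–5.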

Amaranthus retroflexus = assay: as above; type: in vivo; settings: 3 weeks after spraying
How it was run: as §1

Echinochloa crusgalli = assay: as above; type: in vivo; settings: 3 weeks after spraying
How it was run: as §1

Portulaca oleracea = assay: as above; type: in vivo; settings: 3 weeks after spraying
How it was run: as §1

Setaria viridis = assay: as above; type: in vivo; settings: 3 weeks after spraying
How it was run: as §1

Trifoliumre pensL. = assay: Post-emergence herbicidal activity test (stem and leaf spray, pot culture); type: in vivo; settings: 3 weeks after spraying
How it was run: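 Rates of 10, 5 and 2.5 g/mu were applied in a single spray-tower treatment to 2–3-leaf plants, thinned to 10 per pot. Formulation: acetone solution, Tween 80, 1.5 L/ha methyl oleate synergist. Weed response assessed after 3 further greenhouse weeks; mean of three experiments.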

## C#CCN1C(=O)COc2cc(F)c(N3C(=O)C4=C(CCCC4)C3=O)cc21 [flumioxazin]
broad-leaf weeds
  control effect against broad-leaf weeds: 100%

## C/C=C/C(=O)Nc1cc(N2C(=O)C3=C(CCCC3)C2=O)c(F)cc1Cl [Compound D5, (E)-N-(2-chloro-5-(1,3-dioxo-1,3,4,5,6,7-hexahydro-2H-isoindole-2-yl)-4-fluorophenyl)but-2-enamide]
Abutilon theophrasti; dosage 10 g/mu
  Post-emergence herbicidal activity, A. theophrasti (grade): 5 (Grade 5: the growth control rate is greater than or equal to 85%)
Amaranthus retroflexus; dosage 10 g/mu
  Post-emergence herbicidal activity, A. retroflexus (grade): 5 (Grade 5: the growth control rate is greater than or equal to 85%)
Echinochloa crusgalli; dosage 10 g/mu
  Post-emergence herbicidal activity, E. crusgalli (grade): 3 (Grade 3: the growth control rate is greater than or equal to 40% and less than 60%)
Portulaca oleracea; dosage 10 g/mu
  Post-emergence herbicidal activity, P. oleracea (grade): 5 (Grade 5: the growth control rate is greater than or equal to 85%)
Setaria viridis; dosage 10 g/mu
  Post-emergence herbicidal activity, S. viridis (grade): 4 (Grade 4: the growth control rate is greater than or equal to 60% and less than 85%)
other
  melting point: 133 to 138 °C
Trifoliumre pensL.; dosage 10 g/mu
  Post-emergence herbicidal activity, Trifoliumre pensL. (grade): 5 (Grade 5: the growth control rate is greater than or equal to 85%)

## O=C(COc1cc(N2C(=O)C3=C(CCCC3)C2=O)c(F)cc1Cl)c1ccc(Br)cc1 [Compound C14, 2-(4-chloro-2-fluoro-5-(2-oxo-2-(4-bromophenyl)ethoxy)phenyl)-4,5,6,7-tetrahydro-1H-isoindole-1,3(2H)-dione]
Abutilon theophrasti; dosage 2.5 g/mu
  Post-emergence herbicidal activity, A. theophrasti (grade): 5 (Grade 5: the growth control rate is greater than or equal to 85%)
Abutilon theophrasti; dosage 5 g/mu
  Post-emergence herbicidal activity, A. theophrasti (grade): 5 (Grade 5: the growth control rate is greater than or equal to 85%)
Abutilon theophrasti; dosage 10 g/mu
  Post-emergence herbicidal activity, A. theophrasti (grade): 5 (Grade 5: the growth control rate is greater than or equal to 85%)
Amaranthus retroflexus; dosage 2.5 g/mu
  Post-emergence herbicidal activity, A. retroflexus (grade): 5 (Grade 5: the growth control rate is greater than or equal to 85%)
Amaranthus retroflexus; dosage 5 g/mu
  Post-emergence herbicidal activity, A. retroflexus (grade): 5 (Grade 5: the growth control rate is greater than or equal to 85%)
Amaranthus retroflexus; dosage 10 g/mu
  Post-emergence herbicidal activity, A. retroflexus (grade): 5 (Grade 5: the growth control rate is greater than or equal to 85%)
Echinochloa crusgalli; dosage 2.5 g/mu
  Post-emergence herbicidal activity, E. crusgalli (grade): 1 (Grade 1: the growth control rate is greater than or equal to 5% and less than 20%)
Echinochloa crusgalli; dosage 5 g/mu
  Post-emergence herbicidal activity, E. crusgalli (grade): 2 (Grade 2: the growth control rate is greater than or equal to 20% and less than 40%)
Echinochloa crusgalli; dosage 10 g/mu
  Post-emergence herbicidal activity, E. crusgalli (grade): 3 (Grade 3: the growth control rate is greater than or equal to 40% and less than 60%)
Portulaca oleracea; dosage 2.5 g/mu
  Post-emergence herbicidal activity, P. oleracea (grade): 5 (Grade 5: the growth control rate is greater than or equal to 85%)
Portulaca oleracea; dosage 5 g/mu
  Post-emergence herbicidal activity, P. oleracea (grade): 5 (Grade 5: the growth control rate is greater than or equal to 85%)
Portulaca oleracea; dosage 10 g/mu
  Post-emergence herbicidal activity, P. oleracea (grade): 5 (Grade 5: the growth control rate is greater than or equal to 85%)
Setaria viridis; dosage 2.5 g/mu
  Post-emergence herbicidal activity, S. viridis (grade): 2 (Grade 2: the growth control rate is greater than or equal to 20% and less than 40%)
Setaria viridis; dosage 5 g/mu
  Post-emergence herbicidal activity, S. viridis (grade): 3 (Grade 3: the growth control rate is greater than or equal to 40% and less than 60%)
Setaria viridis; dosage 10 g/mu
  Post-emergence herbicidal activity, S. viridis (grade): 4 (Grade 4: the growth control rate is greater than or equal to 60% and less than 85%)
other
  melting point: 183 to 185 °C
Trifoliumre pensL.; dosage 2.5 g/mu
  Post-emergence herbicidal activity, Trifoliumre pensL. (grade): 5 (Grade 5: the growth control rate is greater than or equal to 85%)
Trifoliumre pensL.; dosage 5 g/mu
  Post-emergence herbicidal activity, Trifoliumre pensL. (grade): 5 (Grade 5: the growth control rate is greater than or equal to 85%)
Trifoliumre pensL.; dosage 10 g/mu
  Post-emergence herbicidal activity, Trifoliumre pensL. (grade): 5 (Grade 5: the growth control rate is greater than or equal to 85%)
